# Entries after “also recorded” stand apart in the source; their conditions may differ.
# What was measured:
# endothelial cells = assay: Endothelial cell migration, Boyden chamber assay; format: cell-based, human; details: VEGF 10 ng/ml; for Effect on endothelial migration: Boyden chamber
# Procedure: (§1) Human brain microvascular endothelial cells (HBMEC), human umbilical artery endothelial cells (HUAEC), human umbilical vein endothelial cells (HUVEC) and human aortic smooth muscle cells (HSMC) were obtained from Applied Cell Biology Research Institute. The cells were cultured using a modified MCDB131 medium supplemented with 2% or 10% FBS; those subcultured over 3 to 6 passages were used in the experiments described below.
# Next, endothelial cell migration was examined using Boyden chamber assay. Briefly, an EBM-2 medium comprising VEGF (10 ng/ml), Aβ1-40 (0.5 μM and 5 μM)+VEGF (10 ng/ml), Aβ40-1 (0.5 μM)+VEGF (10 ng/ml), 10% FBS or control (no Aβ derivative added) was placed in the lower section of a chamber. 5×10^4 endothelial cells (in 50 μL of EBM-2 supplemented with 0.5% bovine serum albumin) were seeded into the upper section of the chamber. Cell migration was measured by counting the cells in four highly magnified fields of vision (×40). Three experiments were performed for each group. (mean ±standard deviation: P<0.05)
# The unit of measurement is in cell count/field of vision.
# Akt = assay: Western blot assay, Akt phosphorylation; format: cell-based, human; details: VEGF 10 ng/mL, Aβ1-40 0.5 μM, up to 40 minutes
# Procedure: (§2) After the EC reached an 80% confluence, the medium was exchanged with an FBS-free fresh medium, and the EC was allowed to stand for 4 hours. Next, the cells were stimulated with human VEGF (10 ng/mL) and Aβ1-40 (0.5 μM) for up to 40 minutes. Total cell protein extract from human endothelial cells was separated on 12.5% SDS-polyacrylamide gel, and transferred to a nitrocellulose membrane. The membrane was subjected to Western blotting using antibodies against human Akt, phosphorylated Akt and phosphorylated ERK (Cell Signaling).
# [1] = tested on: Human brain microvascular endothelial cells (arterial); assay: Cell growth (cell count) of artery endothelial cells after Aβ stimulation; format: cell-based; details: for Cell count (relative to control as 100): Artery endothelial cells
# Procedure: as §1
# (§3) Human brain microvascular endothelial cells (arterial and venous) cultured in a 12-well plate by the above-described method were stimulated with Aβ1-40 (0.05 μM, 0.5 μM and 5 μM), Aβ1-42 (0.5 μM), Aβ40-1 (0.5 μM), and control (no Aβ derivative added) for 72 hours. Aβ40-1 has the sequence reverse to that of Aβ1-40. This was used as the control peptide. Next, the number of cells was counted manually using a hemocytometer.
# [2] = tested on: low-density monocytes from the spleen of a C57BL/6J mouse; assay: Adult vascular stem cell differentiation assay; format: cell-based; details: Dil-acetylated LDL and BS-1 double staining; 4 days of cultivation
# Procedure: Briefly, low-density monocytes were isolated from the spleen of a C57BL/6J mouse by a density centrifugation method using Histopaque-1083 (Sigma, St. Louis, Mo.). The cells were seeded onto a 4-well glass slide (Nunc International) coated with rat vitronectin (Sigma), and cultured in a medium comprising 2% heat inactivated defined FBS. The medium was supplemented with the endothelial growth supplementation kit, EGM-2MV single aliquot (Clonetics).
# After 4 days of cultivation, the cells were incubated with the addition of acetylated LDL (Biomedical Technologies, Stoughton, Mass.), and stained with FITC-conjugated Griffonia simplicifolia lectin I (BS1-lectin) (Vector Laboratories). In 15 fields of vision at 40× magnification, the number of cells double stained with acLDL-Dil and BS1 was counted for each sample as endothelial precursors.
# [3] = tested on: Human umbilical artery endothelial cells; assay: EC vessel formation on Matrigel, artery endothelial cells; format: cell-based; details: for Full-length of cells on Matrigel, Mean value: Artery endothelial cells, 72 hours stimulation, 18 hours on Matrigel
# Procedure: as §1
# (§4) Human umbilical artery endothelial cells and human umbilical vein endothelial cells were stimulated with Aβ1-40 (0.5 μM and 5 μM), Aβ40-1 (0.5 μM), and control (no Aβ derivative added) for 72 hours; after reaching an 80% confluence, endothelial cells were then washed with PBS, trypsinated, and cultured on a 6-well culture plate coated with Matrigel basal membrane matrix (Becton Dickinson Labware) for 18 hours. The cells on the Matrigel were photographed, and the full-length was measured using an NIH image analyzer.
# (§5) The unit of measurement is in pixel.
# [4] = tested on: human umbilical vein endothelial cells; assay: EC vessel formation on Matrigel, vein endothelial cells; format: cell-based; details: 72 hours stimulation, 18 hours on Matrigel
# Procedure: as §1, §4, §5
# [5] = tested on: Human brain microvascular endothelial cells (venous); assay: Cell growth (cell count) of venous endothelial cells after Aβ stimulation; format: cell-based; details: 72 hours
# Procedure: as §1, §3
# Human SMC = assay: ELISA assay of VEGF level in SMC culture; format: cell-based; details: 48 hours after stimulation
# Procedure: as §1
# Human SMC was cultured in a 12-well culture plate of an MCDB medium comprising 10% FBS. 48 hours after Aβ1-40 stimulation, the VEGF level in each well was tested by enzyme immunoassay (R&D System).
# ERK = assay: Western blot assay, ERK phosphorylation; format: cell-based, human; details: VEGF 10 ng/mL, Aβ1-40 0.5 μM, up to 40 minutes
# Procedure: as §2
# c57/BL6J mice = assay: Matrigel plug transplant assay; format: in vivo, mouse
# Procedure: Age-matched male c57/BL6J mice at 8 weeks of age were given 500 μL of Matrigel comprising 50 ng/mL VEGF and Aβ1-40 (5 μM), and 37 units of heparin by subcutaneous injection. Seven days later, the Matrigel plug was carefully recovered from each mouse, washed with phosphate-buffered saline (PBS) three times, and stored under freezing at −20° C. A section ([…]) of the frozen plug was fixed in ice-cooled acetone, and then stained with rat anti-mouse CD31 primary antibody (Pharmingen), FITC-conjugated anti-α smooth muscle actin antibody (Sigma) and Alexa-conjugated goat anti-rat secondary antibody (Molecular Probe).
# Blood vessel density in the stained section was evaluated by fluorescence intensity using the NIH image software. The hemoglobin content in each plug was measured as an index of adult vascular regeneration.
# [6] = Matrigel plug with 50 ng/mL VEGF and Aβ1-40 (5 μM), subcutaneous, seven days
substance,measurement,setting,value
vascular endothelial growth factor [VEGF],Effect on endothelial migration,endothelial cells,endothelial migration was caused by vasculogenesis by VEGF
same,"Cell migration, Mean value","endothelial cells; substance in lower section of chamber, Aβ1-40 0.5 μM and 5 μM, Aβ40-1 0.5 μM",100.018 cell count/field of vision
same,Intracellular Akt phosphorylation,Akt,stimulated
β-amyloid 1-40 [Aβ1-40],Cell count (relative to control as 100),"[1]; 0.05 μm, 72 hours",78 ± 9.481
same,Cell count (relative to control as 100),"[1]; 0.5 μm, 72 hours",75 ± 8.011
same,Cell count (relative to control as 100),"[1]; 5 μm, 72 hours",73 ± 11.699
same,Effect on growth of human brain microvascular endothelial cells,"[1]; text statement for arterial and venous cells, more conspicuous in arteries",suppressed the growth of human brain microvascular endothelial cells
same,Effect on endothelial migration,endothelial cells,the effect was inhibited
same,Effect on growth and differentiation of vascular stem/precursor cells,[2],inhibitory effect on the differentiation of vascular stem cells; also recorded: suppressed the growth and differentiation of the cultured vascular precursor cells
same,"Full-length of cells on Matrigel, Mean value",[3]; 0.5 μm,8719.333 pixel
same,"Full-length of cells on Matrigel, Mean value",[3]; 5 μm,7951.167 pixel
same,Effect on EC vessel formation on Matrigel,[3]; text statement for Tables 2 and 3,suppressed EC vessel formation on Matrigel
same,"Full-length of cells on Matrigel, Mean value",[4]; 0.5 μm,10599.000 pixel
same,"Full-length of cells on Matrigel, Mean value",[4]; 5 μm,9884.333 pixel
same,Cell count (relative to control as 100),[5]; 0.05 μm,80 ± 18.987
same,Cell count (relative to control as 100),[5]; 0.5 μm,73 ± 11.392
same,Cell count (relative to control as 100),[5]; 5 μm,70 ± 5.968
same,Effect on VEGF secretion from VSMC,Human SMC,no direct effect on VEGF secretion from VSMC
same,"VEGF level, Mean value","Human SMC; DSF, enzyme immunoassay",0.080
same,ERK phosphorylation caused by VEGF,ERK,no effect on the ERK phosphorylation caused by VEGF
same,Intracellular Akt phosphorylation,Akt,inhibited
same,"Blood vessel density, Mean value",c57/BL6J mice; [6],825.800 pixel
same,"Hemoglobin content, Mean value",c57/BL6J mice; [6],0.084 OD 450/tissue mg
same,Effect on adult vascular regeneration in vivo,"c57/BL6J mice; Matrigel plug, mice",suppressive effect on adult vascular regeneration in vivo
Aβ1-42: β-amyloid species longer than Aβ1-40 by two residues on the C-terminal side,Toxic effect on endothelial cells (necrotized cells observed),"[1]; 0.5 μM, 72 hours, FIG. 2",toxic effect on endothelial cells
